Test results from US20240024403A1, “Compositions and Methods for Managing Weight” (Unigen, Inc., priority 2012, published 2024).

Assay: High fat diet induced obesity (DIO) mouse model
Format: in vivo, C57CL/6J mice
Conditions: for Total Weight / Total Body Weight: in g (unit assumed); for Feed intake: orlistat 40 mg/kg/day oral
Description: C57CL/6J mice aged 4-6 weeks (Korea Research Institute of Bioscience & Biotechnology, Ohchang, Korea) were housed in Polycarbonate cages (five mice per cage) in a room with a 12 hr:12 hr light-dark cycle and an ambient temperature of 24° C. All the mice were fed a commercial chow diet for 1 week after arrival in the animal facility. Mice were then divided into normal and obesity groups and fed with normal diet (ND) and high fat diets (HFD) respectively. The HFD group was divided into multiple treatment groups: a high fat diet vehicle group (HFD), an orlistat (purchased as OTC drug Alli®) positive control treatment group (ORI, 40 mg/kg of animal weight, 2 times/day) and optionally a sibutramine positive control treatment group (10 mg/kg, 1 time/day). The HFD contained 340 g of fat/kg of HFD (310 g lard plus 30 g soybean oil; Harlan Laboratories, USA). The HFD was formulated to provide 60% of the total energy generated by the diet from fat by replacing carbohydrate energy with lard and soybean oil, whereas the normal diet (ND) group was fed a diet providing only 18% of the total diet energy from fat(Harlan Laboratories, USA).
Body weight was measured once each week and feed intake was measured twice per week. At the end of the experimental period, following a 12 hr. fasting period, the animals were anesthetized with ether, and blood was drawn from the abdominal vein. Liver and kidney and adipose tissues (epididymal, retroperitoneal, perirenal adipose tissues) were removed from each animal, rinsed with physiological saline, and weighed. Serum concentrations of glucose, total cholesterol, triglycerides, and LDL-cholesterol were determined using automatic analyzer (INTEGRA 400, Roche, Germany). Statistical significance of test results was measured using the Student's t-test.

[1] = DIO mice, week 2, G1 = 1,100 mg/kg orally twice a day
[2] = DIO mice, week 2, G1 = 1,200 mg/kg orally twice a day
[3] = DIO mice, week 3, G1 = 800 mg/kg orally twice a day
[4] = DIO mice, week 3, G1 = 1,100 mg/kg orally twice a day
[5] = DIO mice, week 3, G1 = 1,200 mg/kg orally twice a day
[6] = DIO mice, week 4, G1 = 800 mg/kg orally twice a day
[7] = DIO mice, week 4, G1 = 1,100 mg/kg orally twice a day
[8] = DIO mice, week 4, G1 = 1,200 mg/kg orally twice a day
[9] = DIO mice, week 5, G1 = 800 mg/kg orally twice a day
[10] = DIO mice, week 5, G1 = 1,100 mg/kg orally twice a day
[11] = DIO mice, week 5, G1 = 1,200 mg/kg orally twice a day
[12] = DIO mice, week 6, G1 = 800 mg/kg orally twice a day
[13] = DIO mice, week 6, G1 = 1,100 mg/kg orally twice a day
[14] = DIO mice, week 6, G1 = 1,200 mg/kg orally twice a day
[15] = DIO mice, week 7, G1 = 800 mg/kg orally twice a day
[16] = DIO mice, week 7, G1 = 1,100 mg/kg orally twice a day
[17] = DIO mice, week 7, G1 = 1,200 mg/kg orally twice a day
[18] = DIO mice, week 8, G1 = 800 mg/kg orally twice a day
[19] = DIO mice, week 8, G1 = 1,100 mg/kg orally twice a day
[20] = DIO mice, week 8, G1 = 1,200 mg/kg orally twice a day
[21] = Liver pathology, DIO mice, G1 = 800 mg/kg orally twice a day
[22] = Liver pathology, DIO mice, G1 = 1,100 mg/kg orally twice a day
[23] = ORI 40 mg/kg, DIO mice, end of study
[24] = ORI 40 mg/kg, mice fed a high fat diet (Table 44)
[25] = ORI 40 mg/kg, mice fed high fat diet
[26] = ORI, DIO mice, blood at end of study
[27] = blood at end of study, orlistat 40 mg/kg oral
[28] = liver pathology score, DIO mice, combination (10:1) 1100 mg/kg twice a day
[29] = liver pathology score, mice fed a high fat diet, Mutamba fractions 250 mg/kg oral 2 times per day, mean
[30] = liver pathology score, mice fed a high fat diet, Mutamba fractions 250 mg/kg oral 2 times per day, mean (table printed twice)

CCCCCCCCCCC[C@@H](C[C@@H]1OC(=O)[C@H]1CCCCCC)OC(=O)[C@H](CC(C)C)NC=O [ORI, orlistat]
Total Weight (DIO mice, week 2, G1 = 800 mg/kg orally twice a day): 34.08
Weight Gain [1]: −6.14
Total Weight [1]: 34.08
Weight Gain [2]: −6.14
Total Body Weight [2]: 34.08
Total Weight (DIO mice, week 2, ORI group, mean, Table 134): 31.91
Weight Gain (DIO mice, week 2, ORI group, mean, Table 135): −6.69
Total Body Weight (DIO mice, week 2, ORI group, mean, Table 145): 34.08
Weight Gain (DIO mice, week 2, ORI group, mean, Table 146): −6.14
Weight Gain [3]: −4.91
Total Weight [3]: 35.32
Weight Gain [4]: −4.91
Total Weight [4]: 35.32
Weight Gain [5]: −4.91
Total Body Weight [5]: 35.32
Total Weight (DIO mice, week 3, ORI group, mean, Table 134): 33.34
Weight Gain (DIO mice, week 3, ORI group, mean, Table 135): −5.27
Total Body Weight (DIO mice, week 3, ORI group, mean, Table 145): 35.32
Weight Gain (DIO mice, week 3, ORI group, mean, Table 146): −4.91
Weight Gain [6]: −3.84
Total Weight [6]: 36.38
Weight Gain [7]: −3.84
Total Weight [7]: 36.38
Weight Gain [8]: −3.84
Total Body Weight [8]: 36.38
Total Weight (DIO mice, week 4, ORI group, mean, Table 134): 35.14
Weight Gain (DIO mice, week 4, ORI group, mean, Table 135): −3.47
Total Body Weight (DIO mice, week 4, ORI group, mean, Table 145): 36.38
Weight Gain (DIO mice, week 4, ORI group, mean, Table 146): −3.84
Weight Gain [9]: −2.57
Total Weight [9]: 37.65
Weight Gain [10]: −2.57
Total Weight [10]: 37.65
Weight Gain [11]: −2.57
Total Body Weight [11]: 37.65
Total Weight (DIO mice, week 5, ORI group, mean, Table 134): 36.27
Weight Gain (DIO mice, week 5, ORI group, mean, Table 135): −2.34
Total Body Weight (DIO mice, week 5, ORI group, mean, Table 145): 37.65
Weight Gain (DIO mice, week 5, ORI group, mean, Table 146): −2.57
Weight Gain [12]: −1.47
Total Weight [12]: 38.75
Weight Gain [13]: −1.47
Total Weight [13]: 38.75
Weight Gain [14]: −1.47
Total Body Weight [14]: 38.75
Total Weight (DIO mice, week 6, ORI group, mean, Table 134): 37.52
Weight Gain (DIO mice, week 6, ORI group, mean, Table 135): −1.08
Total Body Weight (DIO mice, week 6, ORI group, mean, Table 145): 38.75
Weight Gain (DIO mice, week 6, ORI group, mean, Table 146): −1.47
Weight Gain [15]: −0.26
Total Weight [15]: 39.96
Weight Gain [16]: −0.26
Total Weight [16]: 39.96
Weight Gain [17]: −0.26
Total Body Weight [17]: 39.96
Total Weight (DIO mice, week 7, ORI group, mean, Table 134): 38.62
Weight Gain (DIO mice, week 7, ORI group, mean, Table 135): 0.02
Total Body Weight (DIO mice, week 7, ORI group, mean, Table 145): 39.96
Weight Gain (DIO mice, week 7, ORI group, mean, Table 146): −0.26
Weight Gain [18]: −0.23
Total Weight [18]: 39.99
Weight Gain [19]: −0.23
Total Weight [19]: 39.99
Weight Gain [20]: −0.23
Total Body Weight [20]: 39.99
Total Body Weight (DIO mice, week 8, ORI group, mean, Table 145): 39.99
Weight Gain (DIO mice, week 8, ORI group, mean, Table 146): −0.23
Hepatocellular ballooning (0-2) [21]: 0.33
Lobular Inflammation (0-3) [21]: 1.50
NASH (sum) [21]: 2.17
Steatosis (0-3) [21]: 0.33
Hepatocellular ballooning (0-2) [22]: 0.33
Lobular Inflammation (0-3) [22]: 1.50
NSAH (sum) [22]: 2.17
Steatosis (0-3) [22]: 0.33
Organ Weight: Epididymal Fat [23]: 1.92 g
Organ Weight: Liver [23]: 1.12 g
Organ Weight: Perirenal Fat [23]: 0.33 g
Organ Weight: Retroperitoneal Fat [23]: 0.47 g
Organ Weight: Total Fat [23]: 2.73 g
Average Body Weight Gain [24]: -0.031 g/day
Average Food Intake [24]: 2.711 g/day
Food Efficiency Ratio (FER) [24]: −0.011
Average Body Weight Gain [25]: -0.031 g/day
Average Food Intake [25]: 2.711 g/day
Food Efficiency Ratio (FER) (ORI 40 mg/kg, mice fed high fat diet, body weight gain (g/day)/food intake (g/day)): −0.011
Total Body Weight (ORI 40 mg/kg, week 0): 42.76
Total Body Weight (ORI 40 mg/kg, week 1): 38.73
Total Body Weight (ORI 40 mg/kg, week 2): 35.09
Total Body Weight (ORI 40 mg/kg, week 3): 35.66
Total Body Weight (ORI 40 mg/kg, week 4): 37.28
Total Body Weight (ORI 40 mg/kg, week 5): 38.57
Total Body Weight (ORI 40 mg/kg, week 6): 40.03
Total Body Weight (ORI 40 mg/kg, week 7): 40.91
F-Glu (fasting glucose) [26]: 222.43 mg/dL
LDL-C (LDL-cholesterol) [26]: 4.27 mg/dL
T-Chol (total cholesterol) [26]: 134.57 mg/dL
ALT [27]: 21.83 U/L
AST [27]: 65.65 U/L
LDL-C [27]: 4.03 mg/dL
T-chol [27]: 137.33 mg/dL
TG [27]: 27.83 mg/dL
Feed intake (day 4): 2.23 g/day
Feed intake (day 7): 2.56 g/day
Feed intake (day 11): 3.01 g/day
Feed intake (day 14): 3.18 g/day
Feed intake (day 21): 3.27 g/day
Feed intake (day 25): 3.27 g/day
Feed intake (day 28): 3.44 g/day
Feed intake (day 32): 3.27 g/day
Feed intake (day 35): 3.35 g/day
Feed intake (day 39): 3.17 g/day
Feed intake (day 42): 3.43 g/day
Feed intake (day 46): 3.18 g/day
Feed intake (day 49): 3.54 g/day
Feed intake (day 53): 3.17 g/day
weight decrease (end of the 8 week treatment): 0.23 gram
NASH (sum) (liver pathology score sum, DIO mice, combination (10:1) 1100 mg/kg twice a day): 3.40
Hepatocellular ballooning (0-2) [28]: 1.00
Lobular Inflammation (0-3) [28]: 1.40
Steatosis (0-3) [28]: 1.00
Hepatocellular ballooning (0-2) [29]: 0.80
Lobular Inflammation (0-3) [29]: 1.60
Steatosis (0-3) [29]: 1.00
Hepatocellular ballooning (0-2) [30]: 0.80
Lobular Inflammation (0-3) [30]: 1.60
Steatosis (0-3) [30]: 1.00
NSAH (sum) (liver pathology, sum of scores, mice fed a high fat diet, Mutamba fractions 250 mg/kg oral 2 times per day, mean): 3.40
NSAH (sum) (liver pathology, sum of scores, mice fed a high fat diet, Mutamba fractions 250 mg/kg oral 2 times per day, mean (table printed twice)): 3.40
